Data from US7915297B2, “Isoxazole derivatives and use thereof” (SK Holdings Co., Ltd., priority 2005, dated 2011).

How the values were obtained:
[1] = test system: ST-2, a murine bone marrow stromal T cell; assay: Differentiation of ST2 cell line into osteoblasts, alkaline phosphatase activity; type: cell-based; settings: Mus musculus, 96 h; ST-2 cells, 11 μM compound, 4 days; control treated only with ascorbic acid and β-glycerolphosphate = 100; read-out: ALP Activity (% Control)
Method: The derivatives synthesized according to the present invention were assayed for their ability to differentiate stem cells into osteoblasts. In this regard, ST-2, a murine bone marrow stromal T cell, was used to measure the activity of bone-specific alkaline phosphatase, a marker of early-stage osteoblast differentiation. In detail, the cell line was cultured in an MEM supplemented with penicillin-streptomycin (100 Units/mL) and heat-inactivated 5% fetal bovine serum under standard culture conditions (5% CO2, 37° C., 100% relative humidity). […] The suspension was diluted with the same medium to adjust the cell count to 5,000˜10,000 cells per well, and was moved in a 96-well microtiter, subsequently. After being incubated for 24 hrs, the cells were treated in a medium containing 50 μg/ml of ascorbic acid and 5 mM of β-glycerolphosphate with various concentrations of the isoxazole derivatives synthesized in Preparation Examples. During incubation for one to nine days, the Alkaline phosphatase activity was analyzed using a […] Assay kit (Promega, U.S.A.) according to the protocol described in the manual provided by the manufacturer. The activities were measured in cells which had been incubated at 11 μM of each of the compounds for 4 days. Data on the activities of the isoxazole derivatives synthesized are given in Tables 44 to 47 and are expressed as percentages of ALP relative to that measured in the control, which was treated only with ascorbic acid and β-glycerolphosphate. ALP activities according to the concentrations of Derivative (1) are depicted in FIG. 5.

[2] = test system: Wnt/β-catenin signaling (β-catenin activity) in SW480 cell line; assay: Cell-based Wnt agonist screening, TCF luciferase reporter, SW480 (TCF-FL); set-up: species or system human; settings: % of LiCl (20 mM); for Emax at 30 µM: Con. 30 μM; for Emax at 120 µM: Con. 120 μM
Excerpt: (§1) In order to measure the in vitro activity of compounds of the present invention, two human cancer cell lines, HEK293 and SW480, which have intact Wnt signaling and show APC gene mutation in the Wnt signaling pathway, respectively, were used.
(§2) For evaluating the activity of wnt/β-catenin signaling in the cancer cell lines, gene as illustrated in FIG. 1 having β-catenin-binding sites of the Tcf/Lef transcriptional control protein (5 sites of TCF, 5X TCF) and having a fire fly luficerase as a marker protein ascertainable the activity of 5X TCF was introduced into the cells. Treatment with G418 led monoclones of the cell lines, in which the genes were permanently expressed, so as to construct a cell-based Wnt agonist screening system. […] For comparison with the activity of the isoxazole derivatives as Wnt agonists, lithium chloride (LiCl), acting as a positive control for the cell-based Wnt agonist screening system, was used to determine the expression level of the luciferase, and the results are shown in FIG. 3.
(§3) The cell lines, in which a cell-based Wnt agonist screening system was constructed, were cultured in RPMI 1640 media supplemented with penicillin-streptomycin (100 Units/mL) and heat-inactivated 5% fetal bovine serum under standard culture conditions (5% CO2, 37° C., 100% relative humidity). […] The suspension was diluted with the same medium to adjust the cell count to 8,000˜15,000 cells per well and was moved then in a 96-well microtiter plate. After being incubated for 24 hrs, the cells were treated with various concentrations of the isoxazole derivatives synthesized in Preparation Examples. Incubation for an additional 24 hours was followed by the quantitative analysis of luciferase activity using a Luciferase Assay kit (Promega, U.S.A.) according to the protocol described in the manual provided by the manufacturer. Data on the activities of the isoxazole derivatives thus synthesized are given in Tables 34 to 43, and are expressed as percentages relative to the activity of the positive control LiCl (20 mM), a well-known agonist of Wnt signaling.

[3] = test system: Wnt/β-catenin signaling (β-catenin activity) in HEK293 cell line; assay: Cell-based Wnt agonist screening, TCF luciferase reporter, HEK293 (TCF-FL); set-up: species or system human; settings: % of LiCl (20 mM); for Emax at 30 µM: Conc. 30 μM; for Emax at 60 µM: Conc. 60 μM; for Emax at 120 µM: Conc. 120 μM
Excerpt: as §1, §2, §3

[4] = Homo sapiens, HEK293, 24 h, 24 h, read-out: Max. Activity (%)
[5] = Homo sapiens, 24 h, read-out: Max. Activity (%)

| Structure (SMILES) | Emax at 30 µM [3, 4] | Emax at 30 µM [2, 5] | Emax at 120 µM [2, 5] | further results |
| --- | --- | --- | --- | --- |
| COc1cc(OC)cc(N2CCN(CCNC(=O)c3cc(-c4ccco4)on3)CC2)c1 [Derivative (188), 5-furan-2-yl-isoxazole-3-carboxylic acid {2-[4-(3,5-dimethoxyphenyl)-piperazin-1-yl]-ethyl}-amide] | – | – | – | activity at 11 µM [1]: 151%; Emax at 1 µM ([2]; Homo sapiens, 24 h, Con. 1 μM, read-out: Max. Activity (%)): 200% |
| O=C(NCCCn1cnnn1)c1cc(-c2ccco2)on1 [Derivative (52), 5-furan-2-yl-isoxazole-3-carboxylic acid (3-tetrazol-1-yl-propyl)-amide] | – | – | – | activity at 11 µM [1]: 438% |
| Cc1cccc(-c2cc(C(=O)NCCCn3ccnc3)no2)c1 [Derivative (79), 5-m-tolyl-isoxazole-3-carboxylic acid (3-imidazol-1-yl-propyl)-amide] | – | – | – | Emax at 10 µM ([3]; Homo sapiens, HEK293, 24 h, 24 h, Conc. 10 μM, read-out: Max. Activity (%)): 48%; Emax at 10 µM ([2]; Homo sapiens, 24 h, Con. 10 μM, read-out: Max. Activity (%)): 48% |
| O=C(NCCn1nccn1)c1cc(-c2ccc(F)cc2)on1 [Derivative (89), 5-(4-fluoro-phenyl)-isoxazole-3-carboxylic acid (2-[1,2,3]triazol-2-yl-ethyl)-amide] | 132% | 132% | – | – |
| O=C(NCCc1ccccn1)c1cc(-c2ccccc2)on1 [Derivative (70), 5-phenyl-isoxazole-3-carboxylic acid (2-pyridin-2-yl-ethyl)-amide] | – | – | 789% | Emax at 60 µM [3, 4]: 51% |
| [Cl-].[Li+] [LiCl, lithium chloride, reference compound] | – | – | – | Max. Activity (%) ([3]; Conc. 20000 μM): 100%; Max. Activity (%) ([2]; Con. 20000 μM): 100% |
| O=C(NCCc1ccc2c(c1)OCO2)c1cc(-c2ccco2)on1 [Derivative (29), 5-furan-2-yl-isoxazole-3-carboxylic acid (2-benzo[1,3]dioxol-5-yl-ethyl)-amide] | < 20% | < 20% | – | – |
| O=C(NCCc1ccc(Br)cc1)c1cc(-c2ccco2)on1 [Derivative (25), 5-furan-2-yl-isoxazole-3-carboxylic acid [2-(4-bromo-phenyl)-ethyl]-amide] | < 20% | – | 223% | – |
| O=C(NCCn1ccnc1)c1cc(-c2ccco2)on1 [Derivative (33), 5-furan-2-yl-isoxazole-3-carboxylic acid (2-imidazol-1-yl-ethyl)-amide] | – | – | 580% | Emax at 15 µM ([3]; Homo sapiens, HEK293, 24 h, 24 h, Conc. 15 μM, read-out: Max. Activity (%)): 37% |
| O=C(NCCCn1ccnc1)c1cc(-c2cccc(O)c2)on1 [Derivative (106), 5-(3-hydroxy-phenyl)-isoxazole-3-carboxylic acid (3-imidazol-1-yl-propyl)-amide] | 277% | 277% | – | Emax at 7.5 µM ([3]; Homo sapiens, HEK293, 24 h, 24 h, Conc. 7.5 μM, read-out: Max. Activity (%)): 29% |
| O=C(NCCc1ccc(F)cc1)c1cc(-c2ccco2)on1 [Derivative (18), 5-furan-2-yl-isoxazole-3-carboxylic acid [2-(4-fluoro-phenyl)-ethyl]-amide] | < 20% | – | – | Emax at 15 µM ([2]; Homo sapiens, 24 h, Con. 15 μM, read-out: Max. Activity (%)): 149% |
| O=C(NCCCn1ccnc1)c1cc(-c2cccc(F)c2)on1 [Derivative (82), 5-(3-fluoro-phenyl)-isoxazole-3-carboxylic acid (3-imidazol-1-yl-propyl)-amide] | – | – | 67% | Emax at 120 µM [3, 4]: 67% |
| Cc1ccc(-c2cc(C(=O)NCCCn3ccnc3)no2)cc1 [Derivative (80), 5-p-tolyl-isoxazole-3-carboxylic acid (3-imidazol-1-yl-propyl)-amide] | – | – | 58% | Emax at 120 µM [3, 4]: 58% |
| Nc1ccc(CCNC(=O)c2cc(-c3ccco3)on2)cc1 [Derivative (26), 5-furan-2-yl-isoxazole-3-carboxylic acid [2-(4-amino-phenyl)-ethyl]-amide] | < 20% | < 20% | – | – |
| O=C(NCCCn1ccnc1)c1cc(-c2ccc(O)cc2)on1 [Derivative (107), 5-(4-hydroxy-phenyl)-isoxazole-3-carboxylic acid (3-imidazol-1-yl-propyl)-amide] | 28% | – | – | Emax at 60 µM [3, 4]: 584%; Emax at 60 µM ([2]; Homo sapiens, 24 h, Con. 60 μM, read-out: Max. Activity (%)): 584% |
| O=C(NCCCn1ccnn1)c1cc(-c2ccco2)on1 [Derivative (49), 5-furan-2-yl-isoxazole-3-carboxylic acid (3-[1,2,3]triazol-1-yl-propyl)-amide] | < 20% | < 20% | – | – |
| O=C(NCCCn1ccnc1)c1noc(-c2ccco2)c1Cc1ccccc1 [Derivative (67), 4-benzyl-5-furan-2-yl-isoxazole-3-carboxylic acid (3-imidazol-1-yl-propyl)-amide] | < 20% | < 20% | – | – |
| Cc1ccccc1-c1cc(C(=O)NCCCn2ccnc2)no1 [Derivative (78), 5-o-tolyl-isoxazole-3-carboxylic acid (3-imidazol-1-yl-propyl)-amide] | – | – | 42% | Emax at 120 µM [3, 4]: 42% |
| O=C(NCCc1ccccc1)c1cc(-c2ccco2)on1 [Derivative (5), 5-furan-2-yl-isoxazole-3-carboxylic acid phenethyl-amide] | < 20% | 148% | – | – |
| O=C(NCCn1cncn1)c1cc(-c2ccc(F)cc2)on1 [Derivative (88), 5-(4-fluoro-phenyl)-isoxazole-3-carboxylic acid (2-[1,2,4]triazol-1-yl-ethyl)-amide] | – | – | 600% | Emax at 120 µM [3, 4]: 600% |
| O=C(O)c1ccc(CCNC(=O)c2cc(-c3ccco3)on2)cc1 [Derivative (32), 4-{2-[(5-furan-2-yl-isoxazole-3-carbonyl)-amino]-ethyl}-benzoic acid] | – | – | 789% | Emax at 120 µM [3, 4]: 52% |
| Cc1cncn1CCCNC(=O)c1cc(-c2ccco2)on1 [Derivative (57), 5-furan-2-yl-isoxazole-3-carboxylic acid [3-(5-methyl-imidazol-1-yl)-propyl]amide] | < 20% | < 20% | – | – |
| O=C(NCCCn1ccnc1)c1cc(-c2ccccc2[N+](=O)[O-])on1 [Derivative (112), 5-(2-nitro-phenyl)-isoxazole-3-carboxylic acid (3-imidazol-1-yl-propyl)-amide] | – | – | 51% | Emax at 120 µM [3, 4]: 51% |
| O=C(NCCn1ncnn1)c1cc(-c2ccc(F)cc2)on1 [Derivative (91), 5-(4-fluoro-phenyl)-isoxazole-3-carboxylic acid (2-tetrazol-2-yl-ethyl)-amide] | 103% | 103% | – | – |
| O=C(NCc1ccccc1)c1cc(-c2ccco2)on1 [Derivative (4), 5-furan-2-yl-isoxazole-3-carboxylic acid benzylamide] | < 20% | < 20% | – | – |
| O=C(NCCCn1ccnc1)c1cc(-c2cccc([N+](=O)[O-])c2)on1 [Derivative (113), 5-(3-nitro-phenyl)-isoxazole-3-carboxylic acid (3-imidazol-1-yl-propyl)-amide] | – | – | 46% | Emax at 120 µM [3, 4]: 46% |
